Holding throughout (type): physicochemical
The nature of data set [1]: suspension capacity of polysorbates for curcumin by gravimetry. To be noted: Tween 80-Tween 20 (1:1). As for the experimental part:
The suspension capacity of the polysorbates for 1,7-bis (4-hydroxy-3-methoxyphenyl)-1,6-heptadien-3,5-dione was evaluated by gravimetry according to P[…] THE UNITED MEXICAN STATES (FEUM), volume 1, eleventh edition.
Stating that at ratios of <100 of Tween 20 or 80, the capacity is not sufficient to suspend the required analyte dose. However, after 160 mg/mL (1:1) the presence of precipitate was found. In FIG. 2, different concentrations of polysorbate (Tween 80-Tween 20 (1:1) are specified in which, when mixed with analyte results in absence or presence of analyte precipitate (FIG. 3).

Data set [2] in a line: integration of curcumin into aqueous phase with polysorbates (UV/VIS 424 nm). Conditions: 25° C. As for the experimental part: Three concentrations of polysorbate of different value of HLB were evaluated in a 1:1 ratio for each mixture; With this combination of surfactants, 3 aqueous systems were prepared at concentrations of 0.0052%, 0.04% and 0.113% (% weight/weight). The first corresponds to a concentration below the individual Critical Micellar Concentration (CMC) of each surfactant 2.8529 mg/L, the second corresponds to a concentration slightly above the CMC 6.8439 mg/L and the third corresponds to a concentration well above the CMC, respectively 21.222 mg/L (FIG. 1). […] After 30 minutes of stirring at 500 RPM at 25° C., the suspensions were allowed to stand for 30 minutes and a sample from the supernatant was taken for UV/VIS spectrophotometric evaluation at 424 nm, using the 3 mentioned concentrations as blank.
The ability to form a micellar system of 1,7-bis (4-hydroxy-3-methoxyphenyl)-1,6-heptadien-3,5-dione at different percentages of polysorbates was evaluated.

Data set [3] is described as follows: dialysis release of curcumin through cellulose membrane. The source says:
Spectrum™ Spectra/Por™ 4 RC Dialysis Membrane Tubing 12,000 to 14,000 Dalton MWCO, cellulose, was used. The release conditions were pH 6.8, Polysorbate 1, 8%, Polysorbate 2, 4%. The pH 6.8 was used as Kiyohiko Sugano, Hirokazu Hamada, Minoru Machida, Hidetoshi Ushio, Kimitoshi Saitoh, Katsuhide Terada. Optimized conditions of bio-mimetic artificial membrane permeation assay. International Journal of Pharmaceutics Volume 228, Issues 1-2, 9 Oct. 2001, Pages 181-188 to simulate the conditions of the intestine, where the absorption of the compound is carried out. Concentrations of 8 and 4 percent of the polysorbates were used to ensure that the solution is above the CMC and the ability to form micelles is not lost, since the analytical method requires that an amount of release medium gets removed and replenish with simple medium (FEUM, volume 1, eleventh edition.).

Consider `COc1cc(C=CC(=O)CC(=O)C=Cc2ccc(O)c(OC)c2)ccc1O` [curcumin, 1,7-bis (4-hydroxy-3-methoxyphenyl)-1,6-heptadien-3,5-dione], for which the “concentration after which presence of precipitate was found” value in data set [1] is given as more than 160 mg/mL. The “curcumin concentration in solution” value is 2.8529 mg/L in data set [2] (polysorbates 0.0052% w/w (below CMC)), 6.8439 mg/L in data set [2] (polysorbates 0.04% w/w (slightly above CMC)) and 21.222 mg/L in data set [2] (polysorbates 0.113% w/w (well above CMC)). The “concentration released over time” value is “does not show any increase in concentration over time” in data set [3] (absence of polysorbates in the medium) and “increases with time” in data set [3] (pH 6.8, Polysorbate 1 8%, Polysorbate 2 4%, 0.25 h to 20 h).
